From PubChem BioAssay (NCI)
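Test compounds were applied to cells in 96-well plates for 48 hours at 5 doses. TGI denotes the concentration required for complete inhibition of growth.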

Tests used:
Assay in all cases: NCI-60 cell line screen, 48 h
[1] = test system: CCRF-CEM leukemia
[2] = test system: HCC-2998 colon
[3] = test system: HT29 colon
[4] = test system: MALME-3M melanoma
[5] = test system: MDA-MB-231 breast
[6] = test system: MDA-MB-435
[7] = test system: NCI-H522 lung
[8] = test system: NCI/ADR-RES ovarian
[9] = test system: SK-MEL-28 melanoma
[10] = test system: K-562 leukemia

Structure (SMILES)	TGI [1]	TGI [2]	TGI [3]	TGI [4]	TGI [5]	TGI [6]	TGI [7]	TGI [8]	TGI [9]	TGI [10]
C=C1C2CCC3(CCC4C5(C)CCCC4(C=[N+](CCO)C5)C3C2)C1O (configuration not stated)	> 100 µM	> 100 µM	> 100 µM	> 100 µM	> 100 µM	> 100 µM	> 100 µM	> 100 µM	> 100 µM	
Cc1cccc(CNc2ncnc3[nH]ncc23)c1	> 100 µM		> 100 µM	> 100 µM	> 100 µM	> 100 µM	> 100 µM	> 100 µM	> 100 µM	> 100 µM
C/C(N=NS(=O)(=O)c1ccc(C)cc1)=C1\C=CC=CN1O	> 100 µM	> 100 µM	> 100 µM				> 100 µM		> 100 µM	
C=C[C@]1(O[Si](C)(C)C)C[C@@]2(C(=O)OCC)C(O)C(=O)N3CCc4cc(OC)c(OC)cc4[C@]312 (some centres not stated)	> 100 µM		> 100 µM	> 100 µM	> 100 µM	> 100 µM		> 100 µM	> 100 µM	> 100 µM
C[C@@]1(OC(=O)c2cc([N+](=O)[O-])cc([N+](=O)[O-])c2)C[C@@H]2CCCC[C@@H]21	> 100 µM	> 100 µM	> 100 µM	> 100 µM	> 100 µM		> 100 µM	> 100 µM	> 100 µM	> 100 µM
O=S(=O)(O)c1ccc2cc(N=Nc3c(O)ccc4ccccc34)ccc2c1	> 100 µM	> 100 µM	> 100 µM	> 100 µM		> 100 µM	> 100 µM	> 100 µM		> 100 µM
BrCc1ccc(CBr)c2c1-c1c(CBr)ccc3ccc(CBr)c-2c13		> 100 µM	> 100 µM	> 100 µM	> 100 µM	> 100 µM	> 100 µM	> 100 µM	> 100 µM	> 100 µM
O=C(Nc1nc2ncn(CCO)c2c(=O)[nH]1)c1ccccc1	> 100 µM		> 100 µM	> 100 µM			> 100 µM		> 100 µM	> 100 µM
C[C@H](NC(=O)CNC(=O)CCCCCC(=O)NCC(=O)N[C@@H](C)C(=O)OCc1ccccc1)C(=O)OCc1ccccc1	> 100 µM	> 100 µM	> 100 µM	> 100 µM	> 100 µM	> 100 µM		> 100 µM	> 100 µM	> 100 µM
O=C(O)CC12CC3CC(CC(O)(C3)C1)C2		> 100 µM	> 100 µM	77.1 µM	> 100 µM	> 100 µM	59.4 µM	> 100 µM	> 100 µM	> 100 µM
COC(=O)c1ccc(C=C(C#N)C#N)cc1	51.9 µM	32.9 µM	> 100 µM	39.6 µM			30.1 µM		39.9 µM	62.8 µM
COc1cccc(C(NC2=NCCC=N2)c2cc3c(cc2O)OCO3)c1O (configuration not stated)	32.8 µM	46.9 µM	> 100 µM	> 100 µM	59.9 µM	88.8 µM	40.2 µM		> 100 µM	40.6 µM
Cc1ccc(/N=N/C(=NNC(=O)c2ccc(C)cc2)c2ccc(N(C)C)cc2)cc1		73.2 µM	91.3 µM		> 100 µM	39.5 µM	49.9 µM	> 100 µM	> 100 µM	> 100 µM
O=c1ccn(/C=C/C(O)C(O)CO)c(=O)[nH]1 (configuration not stated)	> 100 µM	> 100 µM	> 100 µM	> 100 µM			> 100 µM		> 100 µM	> 100 µM
O/N=C1/CCCc2nonc21	> 100 µM	> 100 µM	> 100 µM	> 100 µM	> 100 µM	> 100 µM		> 100 µM	> 100 µM	> 100 µM
CS(=O)(=O)C1(Br)S(=O)(=O)OCCOS1(=O)=O	> 100 µM	> 100 µM	> 100 µM	> 100 µM			> 100 µM		> 100 µM	> 100 µM
CCCCN(C)C(=O)C1=C(C)NC(C)=C(C(=O)N(C)CCCC)C1	> 100 µM	> 100 µM	> 100 µM		> 100 µM	> 100 µM	> 100 µM	> 100 µM	> 100 µM	> 100 µM
CSc1ccc2c(cc1=O)C(NC(=O)c1ccc(C#N)cc1)CCc1cc(O)c(O)c(O)c1-2 (configuration not stated)	57.8 µM	81.6 µM	75.3 µM	> 100 µM			40.3 µM		> 100 µM	25.1 µM
Cc1ccc(/C=C2\Cc3cc(C)c(C)cc3C2=O)c(C(=O)O)c1	> 100 µM	> 100 µM	> 100 µM	> 100 µM	> 100 µM		> 100 µM		> 100 µM	> 100 µM
COc1ccc(NC(=O)C(=O)Cc2nc3ccc(C(=O)c4ccccc4)cc3[nH]c2=O)c([N+](=O)[O-])c1	61.4 µM	> 100 µM	35.9 µM	> 100 µM	> 100 µM	66.1 µM	51.4 µM	33.2 µM	> 100 µM	
CCOC(=O)/C=C/C1(CCOC(C)=O)CCCCC1	> 10 µM	> 10 µM	> 10 µM		> 10 µM	> 10 µM	> 10 µM	> 10 µM	> 10 µM	> 10 µM
S=C(N/N=C/c1ccccn1)N1CCCCCC1	0.393 µM	> 38.1 µM	> 44.2 µM	42.4 µM		96.8 µM	5.9 µM	0.105 µM	> 100 µM	> 100 µM
NC(=O)c1sc2nc3ccccc3n2c1N	> 100 µM	> 100 µM	> 100 µM	> 100 µM	> 100 µM	> 100 µM		> 100 µM	> 100 µM	
N#Cc1c(-c2ccccc2)cc(-c2ccccc2)n(C2OCC(O)C(O)C2O)c1=S (configuration not stated)	93.1 µM		80 µM	81 µM	23.9 µM	45.2 µM	37.9 µM	86.5 µM	77.1 µM	> 100 µM
Nc1nc2ncn(CC(O)CO)c2c(=O)[nH]1 (configuration not stated)	> 100 µM		> 100 µM	> 100 µM			> 100 µM		> 100 µM	> 100 µM
